One assay addresses T1, Coagulation factor XII (Homo sapiens, UniProt P00748).
T1 sequence (P00748 whole entry): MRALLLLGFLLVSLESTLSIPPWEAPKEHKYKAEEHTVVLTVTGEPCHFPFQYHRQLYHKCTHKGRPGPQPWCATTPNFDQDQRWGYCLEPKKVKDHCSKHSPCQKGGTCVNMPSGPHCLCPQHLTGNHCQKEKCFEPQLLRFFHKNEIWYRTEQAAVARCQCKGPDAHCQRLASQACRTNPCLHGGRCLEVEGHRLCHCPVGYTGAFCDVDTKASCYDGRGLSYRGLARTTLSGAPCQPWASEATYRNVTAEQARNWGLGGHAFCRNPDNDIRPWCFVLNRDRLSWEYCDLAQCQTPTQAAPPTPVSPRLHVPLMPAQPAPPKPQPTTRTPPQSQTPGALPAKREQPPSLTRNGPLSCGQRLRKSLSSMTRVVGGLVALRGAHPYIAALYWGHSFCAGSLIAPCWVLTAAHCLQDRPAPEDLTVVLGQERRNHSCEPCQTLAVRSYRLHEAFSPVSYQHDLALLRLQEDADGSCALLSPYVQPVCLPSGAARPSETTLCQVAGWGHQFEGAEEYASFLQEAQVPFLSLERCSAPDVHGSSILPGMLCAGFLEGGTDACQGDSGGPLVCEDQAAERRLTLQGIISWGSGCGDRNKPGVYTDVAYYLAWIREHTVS
Description: Inhibition of human factor 12a.

The target of assay [1] is T2, Prothrombin (Homo sapiens, UniProt P00734). The assay can be described thus: Inhibition of human thrombin at 50 uM.
Assay [2] concerns the target T3, Coagulation factor X (Homo sapiens, UniProt P00742). The assay can be described thus: Inhibition of human factor 10a at 50 uM.
Assay [3] deals with Coagulation factor VII/tissue factor (Homo sapiens) (UniProt P08709+P13726). Description: Inhibition of human tissue factor/factor 7a at 50 uM.
In assay [4] the target is T4, Plasma kallikrein (Homo sapiens, UniProt P03952). The assay can be described thus: Inhibition of human kallikrein at 50 uM.
T4 sequence (P03952 20-390 limits assumed): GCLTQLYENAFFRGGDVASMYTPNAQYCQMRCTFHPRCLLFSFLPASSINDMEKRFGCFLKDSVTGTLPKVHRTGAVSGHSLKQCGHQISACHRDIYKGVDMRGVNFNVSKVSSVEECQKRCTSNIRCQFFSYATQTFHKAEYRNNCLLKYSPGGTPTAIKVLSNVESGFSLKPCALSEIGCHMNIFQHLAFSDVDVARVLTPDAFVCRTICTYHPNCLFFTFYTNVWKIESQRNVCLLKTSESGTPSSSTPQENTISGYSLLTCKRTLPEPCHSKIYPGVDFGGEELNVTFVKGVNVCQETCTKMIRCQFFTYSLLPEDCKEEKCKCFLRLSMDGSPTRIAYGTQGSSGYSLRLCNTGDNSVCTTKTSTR
T4 sequence (P03952 391-638 limits assumed): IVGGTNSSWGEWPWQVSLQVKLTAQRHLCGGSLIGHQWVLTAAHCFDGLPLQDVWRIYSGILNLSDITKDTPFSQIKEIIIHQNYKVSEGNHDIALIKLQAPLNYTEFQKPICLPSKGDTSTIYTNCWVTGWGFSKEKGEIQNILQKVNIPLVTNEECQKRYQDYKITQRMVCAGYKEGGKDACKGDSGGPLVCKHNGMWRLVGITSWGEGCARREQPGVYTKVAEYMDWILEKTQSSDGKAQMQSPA
Assay [5] deals with T5, Coagulation factor XII (Homo sapiens) (UniProt P00748).
T5 sequence (whole entry): T1 sequence (P00748 whole entry)
Description: Inhibition of human factor 12a assessed as residual activity at 49.5 uM. Conditions: TDE = time-dependent effect.

Assay [6] has as its target T2, Prothrombin. Description: Inhibition of human thrombin.
Assay [7] concerns the target T3, Coagulation factor X. The assay can be described thus: Inhibition of human factor 10a.
Assay [8] addresses Coagulation factor VII/tissue factor (Homo sapiens, UniProt P08709). Description: Inhibition of human tissue factor/factor 7a. The class given is protein-complex assay.
The target in assay [9] is T4, Plasma kallikrein. Description: Inhibition of human kallikrein.
Assay [10] has as its target T5, Coagulation factor XII (Homo sapiens). Description: Inhibition of human factor 12a at 50 uM.

The structures appear in SMILES notation. Active and inactive are the calls of the source. The calls are words filed in the database; no cut-off is given here. Non-standard residues stand in square brackets, D forms with d. Residues, ends and D or L forms follow the SMILES beside them. *: point of attachment. CH2Cl = ClC*

T3 sequence (P00742 41-179 limits assumed): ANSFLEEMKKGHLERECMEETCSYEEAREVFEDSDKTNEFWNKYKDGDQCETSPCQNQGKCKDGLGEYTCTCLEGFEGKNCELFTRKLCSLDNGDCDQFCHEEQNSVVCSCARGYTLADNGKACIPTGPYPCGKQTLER
T3 sequence (P00742 235-488 limits assumed): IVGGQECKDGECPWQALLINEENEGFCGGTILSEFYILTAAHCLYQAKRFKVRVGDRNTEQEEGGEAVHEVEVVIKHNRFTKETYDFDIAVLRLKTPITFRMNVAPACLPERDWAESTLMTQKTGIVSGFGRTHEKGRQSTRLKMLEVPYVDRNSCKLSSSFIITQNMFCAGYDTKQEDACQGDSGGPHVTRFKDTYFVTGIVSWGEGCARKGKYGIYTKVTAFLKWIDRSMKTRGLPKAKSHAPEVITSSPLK
Coagulation factor VII/tissue factor, sequence (P08709 61-212 limits assumed): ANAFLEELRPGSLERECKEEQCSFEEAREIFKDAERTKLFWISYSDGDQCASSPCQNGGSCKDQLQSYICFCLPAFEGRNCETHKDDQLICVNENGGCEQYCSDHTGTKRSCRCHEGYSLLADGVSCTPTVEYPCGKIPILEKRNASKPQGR
Coagulation factor VII/tissue factor, sequence (P08709 213-466 limits assumed): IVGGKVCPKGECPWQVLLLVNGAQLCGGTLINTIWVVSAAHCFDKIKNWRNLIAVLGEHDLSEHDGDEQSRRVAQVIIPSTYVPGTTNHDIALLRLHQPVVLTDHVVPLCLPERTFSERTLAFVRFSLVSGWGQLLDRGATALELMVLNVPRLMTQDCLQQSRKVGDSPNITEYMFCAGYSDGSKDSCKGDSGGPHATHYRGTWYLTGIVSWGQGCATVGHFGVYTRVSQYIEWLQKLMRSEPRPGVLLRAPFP
Coagulation factor VII/tissue factor, sequence (P13726 33-295 partner limits assumed): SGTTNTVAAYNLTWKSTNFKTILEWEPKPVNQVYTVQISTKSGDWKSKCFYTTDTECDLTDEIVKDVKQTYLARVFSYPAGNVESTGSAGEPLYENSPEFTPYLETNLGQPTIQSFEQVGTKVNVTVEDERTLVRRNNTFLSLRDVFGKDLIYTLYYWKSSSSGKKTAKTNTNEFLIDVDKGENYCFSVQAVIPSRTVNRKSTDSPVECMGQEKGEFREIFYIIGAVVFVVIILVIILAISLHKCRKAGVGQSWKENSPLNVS

For the compound `O=C(Nc1ccccc1)c1cc2cc(Cl)cc(Br)c2oc1=O`, the IC50 against Coagulation factor XII was 4.4 µM. Also, the result (on Prothrombin [1]; at Coagulation factor X [2]; in [3]; at Plasma kallikrein [4]) was inactive. In assay [5], the Activity result was “tde”.
On to `NC(N)=NCCC[C@H](NC(=O)[C@H](Cc1ccccc1)NC(=O)[C@H]1CCCN1)C(=O)CCl` (H-[dP]-Phe-Arg-CH2Cl), for which the IC50 on Coagulation factor XII was determined as 0.18 µM; against Prothrombin [6] it was 2.5 µM; on Coagulation factor X [7], 1.9 µM; in [8], 1.5 µM; against Plasma kallikrein [9] it was 0.031 µM.
In the case of `O=C(Nc1ccccc1)c1cc2c(ccc3ccccc32)oc1=O`, the result in [10] was inactive. Also, the half-maximal inhibitory concentration (IC50) (on Prothrombin [6]; on Coagulation factor X [7]; in [8]; against Plasma kallikrein [9]) was above 50 µM in each case.
In the case of `Cc1cc(C)cc(NC(=O)c2cc3cc(Cl)cc(Cl)c3oc2=O)c1`, the 50% inhibitory concentration (IC50) against Coagulation factor XII is 4.3 µM; against Prothrombin [6], above 50 µM; against Coagulation factor X [7] it was above 50 µM; in assay [8], above 50 µM; against Plasma kallikrein [9] it was above 50 µM.

The values are drawn from ChEMBL document CHEMBL1150342, “Novel 3-carboxamide-coumarins as potent and selective FXIIa inhibitors” (J Med Chem, 2008).
